Measured values published in patent US10882826B2, “Quinolinone or quinazolinone comprising antibiofilm compositions, compounds and methods and uses relating thereto” (University College Cork—National University of Ireland, priority 2015, dated 2021).

Columns and labels:
[1] = tested on: Pseudomonus aeruginosa; assay: Virulence of Pseudomonas aeruginosa (summary statement); assay type: cell-based; settings: unlike HHQ and PQS
Experimental: The virulence of compounds B1, B2, C2, C3, C4, C5, C6, C8 and C11 towards P. aeruginosa was assessed using the following method:
P. aeruginosa strains were cultured as described above for 24 hr, with the addition of test compounds (10 μM). Cultures were centrifuged at 4000 rpm for 10 minutes and the cell free supernatant (5 ml) removed. Chloroform (3 ml) was added, and mixed by vortex. After centrifugation at 4000 rpm for 5 mins, the lower aqueous phase was transferred to 0.2 M HCl (2 ml). Samples were mixed by vortex and centrifuged at 4000 rpm for 5 mins to separate the phases. An aliquot of the top phase (1 ml) was removed and spectrophotmetrically analysed at OD570 nm. Phenazine production was calculated using the following formula: OD570 nm×2×17.072 and the units expressed in μg/ml. […]

[2] = tested on: mammalian cells; assay: Cytotoxicity towards mammalian cells (summary statement); assay type: cell-based
Experimental: Lactate dehydrogenase (LDH) release from IB3 lung epithelial cells was assayed as a measure of cytotoxicity using an LDH colorimetric kit (Roche) according to manufacturers' instructions. Briefly, IB3-1 cells were seeded onto 96 well plates and treated with methanol (control) and test compounds (100 μM). Following 16 hr incubation at 37° C. and 5% CO2, supernatants were removed and added to catalyst reaction mixture in a fresh plate and further incubated at 37° C. and 5% CO2 for 30 mins to allow for colour development. After this period, the plate was analysed on an ELISA plate reader at OD490 nm. Cytotoxicity was expressed as a percentage of cells treated with 0.1% (v/v) Triton (100% cytotoxicity). The results are detailed in table 3:
The above experiments were repeated, testing some compounds against further cell lines (A549, DU145 and HeLa).

[3] = tested on: P. aeruginosa PAO1 pqsA-pqsA-lacZ strain; assay: Phenazine extraction (phenazine production); assay type: cell-based; settings: for Phenazine, Mean: PAO1 pqsA-pqsA-lacZ strain, test compounds 10 μM, 24 hr, methanol control 0.080; for Normalised Phenazine, Mean: normalized to the methanol control (=1), n>=2
Experimental: (§1) P. aeruginosa strains, PAO1 and pqsA mutant, containing the chromosomally inserted pqsA-lacZ promoter fusion on plasmid pUC18-mini-Tn7, were sub-cultured from glycerol stocks onto LB agar plates, supplemented with Carbenicillin (200 μg/ml) and X-gal (40 μg/ml), and incubated at 37° C. overnight. Single colonies were inoculated into LB broth (20 ml), supplemented with Carbenicillin (200 μg/ml), and incubated at 37° C., shaking at 180 rpm overnight. For subsequent experiments, the OD600 nm was recorded and a starting OD600 nm of 0.02 was inoculated into fresh LB broth, supplemented with Carbenicillin (200 μg/ml) and incubated at 37° C., shaking at 180 rpm.
P. aeruginosa strains were cultured as described above for 24 hr, with the addition of test compounds (10 μM). Cultures were centrifuged at 4000 rpm for 10 minutes and the cell free supernatant (5 ml) removed. Chloroform (3 ml) was added, and mixed by vortex. After centrifugation at 4000 rpm for 5 mins, the lower aqueous phase was transferred to 0.2 M HCl (2 ml). Samples were mixed by vortex and centrifuged at 4000 rpm for 5 mins to separate the phases. An aliquot of the top phase (1 ml) was removed and spectrophotmetrically analysed at OD570 nm. Phenazine production was calculated using the following formula: OD570 nm×2×17.072 and the units expressed in μg/ml.
(§2) The phenazine production levels and Miller units in the PAO1 pqsA-pqsA-lacZ strain are detailed in table 5.
(§3) The virulence of compounds B2, C13 and C15 towards P. aeruginosa was assessed using an analogous method.

[4] = tested on: C. albicans strain SC5314 biofilm; assay: XTT metabolic assay of C. albicans biofilm; assay type: cell-based, Candida albicans; settings: C. albicans biofilm, test compound 100 μM, 24 hr; MeOH control 0.647, untreated 0.851
Experimental: C. albicans strain SC5314 was sub-cultured from 15% (v/v) glycerol stocks at −80° C. onto Yeast Peptone Dextrose (YPD) medium [1% (w/v) yeast extract, 2% (w/v) peptone and 2% (w/v) dextrose] and incubated at 30° C. overnight.
The test compounds in desiccated form were re-suspended in Methanol to create a 10 mM stock. […]
The ability of some of the compounds detailed in example 1 to disrupt Candida albicans was tested using Confocal Scanning Laser Microscopy and an XTT Metabolic Assay. The XTT assay is a commonly used quantitative method assessing Candida biofilm mass and growth often in response to novel drug therapies.
C. albicans biofilm formation was carried out in 96 well plates by a method of the prior art. Briefly, C. albicans was inoculated into Yeast Nitrogen Base [10% (w/v)] and glucose/maltose [10% (w/v)] and incubated overnight at 30° C. Seeding densities for all subsequent experiments (N=3) were OD600=0.05. Cells were grown in Yeast Nitrogen Base supplemented with 1 M Phosphate buffer and acetyl-D-glucosamine (YNB-NP) along with appropriate volumes of test compound to provide the desired concentration. Cells were cultured in 96 well plates for 1 hr at 37° C. to facilitate yeast attachment. After this incubation, the supernatants were aspirated, the wells washed twice with YNB-NP media, and fresh media with the same concentration of test compound added to the appropriate wells. The plate was incubated for 24 hr at 37° C. The next day, the cultures were aspirated and the wells washed once with YNB-NP media.
C. albicans biofilm quantification was carried out in 96 well plates using a semi-quantitative Tetrazolium salt, 2,3-bis-(2-methoxy-4-nitro-5-sulfophenyl)-2H tetrazolium-5-carboxanilide inner salt (XTT) reduction assay (Hawser, Tunney et al, Antimicrob Agents Chemother. 2004 May; 48(5):1879-81). XTT (0.01 g) was dissolved in sterile water (20 ml) and filter sterilized. 10 μl of Menadione dissolved in Acetone was added to the XTT solution, just before use. The XTT-Menadione Solution (100 μl) was added to each well. The plate was incubated in the dark at 37° C. for up to 2 hr to allow for colour development. The OD492 nm was recorded for each well. Experiments were repeated at least three times, with at least eight technical replicates.
Experiments were first carried out using the test compound at concentration of 100 μM.

[5] = tested on: pqsA-lacZ promoter fusion; assay: Promoter fusion based expression analysis (pqsA-lacZ, Miller units); assay type: cell-based, P. aeruginosa; settings: for Miller Units, Mean: PAO1 pqsA-pqsA-lacZ strain, 100 μM, overnight, methanol control 12287; for Normalised Miller Units, Mean: normalized to the methanol control (=1), n>=2
Experimental: as §1
Promoter fusion analyses were performed in a 96-well format. Briefly, overnight cultures of wild-type PAO1 pqsA-lacZ (pLP0996) and mutant strain PAO1 pqsA^− pqsA-LacZ were diluted to OD600 nm=0.02 in LB. Test compounds at 100 μM final concentration were added, mixed, aliquoted into 96 well plates and incubated overnight at 37° C. with shaking. The next day, OD600 nm values were recorded in a plate reader. Aliquots of cells (0.02 ml) were permeabilised [100 mM dibasic sodium phosphate (Na2HPO4), 20 mM KCl, 2 mM MgSO4, 0.8 mg/mL CTAB (hexadecyltrimethylammonium bromide), 0.4 mg/mL sodium deoxycholate, 5.4 μL/mL beta-mercaptoethanol] and added to substrate solution [60 mM Na2HPO4, 40 mM NaH2PO4, 1 mg/mL o-nitrophenyl-β-D-Galactoside (ONPG), 2.7 μL/mL β-mercaptoethanol]. The kinetics of colour development was monitored and the reactions were stopped using 1M NaCO3. OD420 nm were recorded as above. Miller units were calculated using the following equation; 1000×[OD420 nm/(OD600 nm)×0.02 ml×reaction time (mins)].
as §2, §3

[6] = tested on: A. fumigatus CFBRC2 biofilm; assay: A. fumigatus biofilm assay, clinical source CFBRC2; assay type: cell-based, Aspergillus fumigatus; settings: biofilm from clinical source CFBRC2
Experimental: (§4) A. fumigatus Af293 was grown on SDA in 100 ml cell culture flasks at 37° C. for 3-4 days. Conidia were harvested by flooding the surface of the agar plates with 5 ml PBS (Oxoid) containing 0.025% (v/v) Tween 20 and gently moving the liquid over the surface of the fungal lawn. The conidial suspension was transferred into a 25 ml sterile container and conidia were counted using a Neubauer haemocytometer and light microscope. Conidia were adjusted to the required concentration in RPMI 1640 (Sigma) buffered to pH 7.0 with 0.165 M MOPS immediately prior to biofilm formation analysis.
(§5) To assess biofilm formation, counted A. fumigatus spores (1×10^5) in MOPS buffered RPMI 1640 were inoculated into 24- and 96-well plates and grown overnight in the presence of 100 μM HHQ, PQS and the test compounds. After 24 hrs, the media was removed and the biofilm washed twice with distilled water after which 0.1% crystal violet (CV) was added to each well and allowed to stand for 1 hr at room temperature. The crystal violet was removed and all wells washed in a water bath by inversion. Ethanol was added to each well to solubilise biofilms after which samples were read on a spectrophotometer at Abs595 nm.
(§6) The above experiments were carried out using biofilms grown from laboratory sources of A. fumigatus. The experiments were repeated to test some compounds against biofilms grown from three different clinical sources of A. fumigatus (CFBRC1, CFBRC2 and CFBRC3. The results are shown in table 8: […]

[7] = tested on: A. fumigatus Af293 biofilm; assay: A. fumigatus biofilm assay (crystal violet); assay type: cell-based, Aspergillus fumigatus; settings: for Relative absorbance at 595 nm compared to methanol control, Mean: A. fumigatus Af293 biofilm, 100 μM, 24 hrs, crystal violet; for effectiveness against fungal biofilms formed by Aspergillus fumigatus (in words): summary statement
Experimental: A. fumigatus Af293 was routinely grown on Sabouraud dextrose agar (SDA) in 100 ml cell culture flasks at 37° C. for 3-4 days until a lawn of fungal growth was observed.
as §4, §5

[8] = tested on: A. fumigatus CFBRC3 biofilm; assay: A. fumigatus biofilm assay, clinical source CFBRC3; assay type: cell-based, Aspergillus fumigatus; settings: biofilm from clinical source CFBRC3
Experimental: as §4, §5, §6

[9] = tested on: A. fumigatus CFBRC1 biofilm; assay: A. fumigatus biofilm assay, clinical source CFBRC1; assay type: cell-based, Aspergillus fumigatus; settings: biofilm from clinical source CFBRC1
Experimental: as §4, §5, §6

With CCCCCCCc1cc(=O)c2cc(OC)ccc2[nH]1 [Compound C11] the “effect on virulence of Pseudomonus aeruginosa (in words)” value (shortened to “effect on virulence”) [1] was “do not increase the virulence”, the “cytotoxicity towards mammalian cells (in words)” value [2] was “reduced cytotoxicity” and the “Phenazine, Mean” value [3] was 0.432 µg/mL. The “Absorbance at 492 nm, Mean (XTT)” value [4] was 0.242 and the “Miller Units, Mean” value [5] was 12254 Miller Units.

With CCCCCCCc1cc(=O)c2c(C)cc(C)cc2[nH]1 [Compound C15] the “effect on virulence” value [1] was “do not increase the virulence”, the “Relative absorbance compared to MeOH (=1), Mean” value (“Relative absorbance … (=1), Mean” for short) [6] was 0.443 and the “cytotoxicity towards mammalian cells (in words)” value [2] was “reduced cytotoxicity”. The “Relative absorbance at 595 nm compared to methanol control, Mean” value (shortened to “Relative absorbance at 595 nm”) [7] was 0.25, the “effectiveness against fungal biofilms formed by Aspergillus fumigatus (in words)” value (“effectiveness” for short) [7] was “effective” and the “Normalised Phenazine, Mean” value [3] was 0.4984 ratio to methanol control. For the same molecule, the “Normalised Miller Units, Mean” value [5] was 0.4671, the “Relative absorbance … (=1), Mean” value [8] was 0.413 and the “Relative absorbance … (=1), Mean” value [9] was 0.518.

For CCCCCCCc1cc(=O)c2cc(C(=O)OCC)ccc2[nH]1 [Compound C13], the “effect on virulence” value [1] was “do not increase the virulence”, the “Relative absorbance … (=1), Mean” value [6] was 0.620 and the “cytotoxicity towards mammalian cells (in words)” value [2] was “reduced cytotoxicity”. For the same molecule, the “Relative absorbance at 595 nm” value [7] was 0.38, the “effectiveness” value [7] was “effective” and the “Normalised Phenazine, Mean” value [3] was 0.747 ratio to methanol control. The “Normalised Miller Units, Mean” value [5] was 0.3715, the “Relative absorbance … (=1), Mean” value [8] was 0.609 and the “Relative absorbance … (=1), Mean” value [9] was 0.507.

With CCCCCCCc1cc(=O)c2cc(CCCCCC)ccc2[nH]1 [Compound C7] the “effect on virulence” value [1] was “do not increase the virulence”, the “cytotoxicity towards mammalian cells (in words)” value [2] was “reduced cytotoxicity” and the “Relative absorbance at 595 nm” value [7] was 0.27. The “effectiveness” value [7] was “effective”.

With CCCCCCCCCc1cc(=O)c2cc(OC)ccc2[nH]1 [Compound C8] the “effect on virulence” value [1] was “do not increase the virulence”, the “cytotoxicity towards mammalian cells (in words)” value [2] was “reduced cytotoxicity” and the “Relative absorbance at 595 nm” value [7] was 0.47. The “effectiveness” value [7] was “effective”, the “Phenazine, Mean” value [3] was 0.205 µg/mL and the “Absorbance at 492 nm, Mean (XTT)” value [4] was 0.457. The “Miller Units, Mean” value [5] was 11753 Miller Units.

For CCCCCCCc1cc(=O)c2ccc(OC)cc2[nH]1 [Compound C9], the “effect on virulence” value [1] was “do not increase the virulence”, the “Relative absorbance … (=1), Mean” value [6] was 0.484 and the “cytotoxicity towards mammalian cells (in words)” value [2] was “reduced cytotoxicity”. The “Relative absorbance at 595 nm” value [7] was 0.18, the “effectiveness” value [7] was “effective” and the “Relative absorbance … (=1), Mean” value [8] was 0.439. For the same molecule, the “Relative absorbance … (=1), Mean” value [9] was 0.593.

For CCCCCCCc1cc(=O)c2cc(F)ccc2[nH]1 [Compound C14], the “Relative absorbance … (=1), Mean” value [6] was 0.823, the “cytotoxicity towards mammalian cells (in words)” value [2] was “reduced cytotoxicity” and the “Relative absorbance at 595 nm” value [7] was 0.42. The “Relative absorbance … (=1), Mean” value [8] was 0.501 and the “Relative absorbance … (=1), Mean” value [9] was 0.550.
